ChEMBL document CHEMBL3297716, “Rhapontigenin suppresses cell migration and invasion by inhibiting the PI3K-dependent Rac1 signaling pathway in MDA-MB-231 human breast cancer cells” (J Nat Prod, 2014)
Activity calls are given as the source filed them. The calls are words filed in the database; no cut-off is given here.

What was measured:
MDA-MB-231 [1] = assay: Effect on total PAK1 protein level in human MDA-MB-231 cells at 10 to 50 uM after 24 hrs by Western blot analysis; assay type: functional, cell-based
MDA-MB-231 [2] = assay: Inhibition of PI3K-dependent Rac1 activation in human MDA-MB-231 cells at 10 uM after 30 mins by ELISA relative to untreated control; assay type: cell-based
MDA-MB-231 [3] = assay: Inhibition of PI3K-dependent Rac1 activation in human MDA-MB-231 cells assessed as inhibition of LIMK1/2 phosphorylation at 10 to 50 uM after 24 hrs by Western blot analysis; assay type: cell-based
Homo sapiens [4] = organism: Homo sapiens; assay: Inhibition of PI3K-dependent Rac1 activation in human MDA-MB-231 cells assessed as suppression of serum-induced cell migration at 50 uM after 24 hrs by wound-healing assay relative to control; assay type: cell-based
MDA-MB-231 [5] = assay: Inhibition of PI3K in human MDA-MB-231 cells assessed as inhibition of AKT phosphorylation at 10 to 50 uM after 24 hrs by Western blot analysis; assay type: cell-based
MDA-MB-231 [6] = assay: Inhibition of PI3K-dependent Rac1 activation in human MDA-MB-231 cells at 50 uM after 30 mins by ELISA relative to untreated control; assay type: cell-based
MDA-MB-231 [7] = assay: Effect on total LIMK1/2 protein level in human MDA-MB-231 cells at 10 to 50 uM after 24 hrs by Western blot analysis; assay type: functional, cell-based
MDA-MB-231 [8] = assay: Inhibition of PI3K in human MDA-MB-231 cells assessed as downregulation of activated Rac1-GTP protein expression at 50 uM after 30 mins by Western blot analysis; assay type: cell-based
Homo sapiens [9] = organism: Homo sapiens; assay: Inhibition of PI3K-dependent Rac1 activation in human MDA-MB-231 cells assessed as suppression of serum-induced cell migration at 10 uM after 24 hrs by wound-healing assay relative to control; assay type: cell-based
MDA-MB-231 [10] = assay: Cytotoxicity against human MDA-MB-231 cells assessed as cell viability up to 50 uM after 24 hrs by MTT assay; assay type: cell-based; settings: mda-mb-231, 24 h
MDA-MB-231 [11] = assay: Inhibition of PI3K-dependent Rac1 activation in human MDA-MB-231 cells at 25 uM after 30 mins by ELISA relative to untreated control; assay type: cell-based
MDA-MB-231 [12] = assay: Effect on total cofilin protein level in human MDA-MB-231 cells at 10 to 50 uM after 24 hrs by Western blot analysis; assay type: functional, cell-based
MDA-MB-231 [13] = assay: Inhibition of PI3K-dependent Rac1 activation in human MDA-MB-231 cells assessed as downregulation of Arp-2 protein expression at 10 to 50 uM after 24 hrs by Western blot analysis; assay type: cell-based
MDA-MB-231 [14] = assay: (§1) Inhibition of PI3K-dependent Rac1 activation in human MDA-MB-231 cells assessed as suppression of serum-induced cell invasion into matrigel at 25 uM preincubated for 30 mins with cells followed by loading into upper well of matrigel coated filter measured after 15 hrs by Boyden chamber analysis relative to control; assay type: cell-based
MDA-MB-231 [15] = assay: Cytotoxicity against human MDA-MB-231 cells assessed as cell viability at 100 to 200 uM after 24 hrs by MTT assay; assay type: cell-based; settings: mda-mb-231, 24 h
MDA-MB-231 [16] = assay: Inhibition of PI3K-dependent Rac1 activation in human MDA-MB-231 cells assessed as downregulation of Arp-3 protein expression at 10 to 50 uM after 24 hrs by Western blot analysis; assay type: cell-based
MDA-MB-231 [17] = assay: Inhibition of PI3K-dependent Rac1 activation in human MDA-MB-231 cells assessed as inhibition of cofilin phosphorylation at 10 to 50 uM after 24 hrs by Western blot analysis; assay type: cell-based
MDA-MB-231 [18] = assay: Inhibition of PI3K phosphorylation in human MDA-MB-231 cells at 10 to 50 uM after 24 hrs by Western blot analysis; assay type: cell-based
MDA-MB-231 [19] = assay: Inhibition of PI3K-dependent Rac1 activation in human MDA-MB-231 cells assessed as downregulation of WAVE-2 protein expression at 10 to 50 uM after 24 hrs by Western blot analysis; assay type: cell-based
MDA-MB-231 [20] = assay: Effect on total PI3K protein level in human MDA-MB-231 cells at 10 to 50 uM after 24 hrs by Western blot analysis; assay type: functional, cell-based
MDA-MB-231 [21] = assay: as §1, with “10” for “25”; assay type: cell-based
MDA-MB-231 [22] = assay: Inhibition of PI3K-dependent Rac1 activation in human MDA-MB-231 cells assessed as inhibition of PAK1 phosphorylation at 10 to 50 uM after 24 hrs by Western blot analysis; assay type: cell-based
Homo sapiens [23] = organism: Homo sapiens; assay: Inhibition of PI3K-dependent Rac1 activation in human MDA-MB-231 cells assessed as suppression of serum-induced cell migration at 25 uM after 24 hrs by wound-healing assay relative to control; assay type: cell-based
MDA-MB-231 [24] = assay: Effect on total Rac1 protein expression in human MDA-MB-231 cells after 30 mins by Western blot analysis; assay type: functional, cell-based
MDA-MB-231 [25] = assay: as §1, with “50” for “25”; assay type: cell-based
MDA-MB-231 [26] = assay: Effect on total AKT protein level in human MDA-MB-231 cells at 10 to 50 uM after 24 hrs by Western blot analysis; assay type: functional, cell-based
MDA-MB-231 [27] = assay: Inhibition of PI3K-dependent Rac1 activation in human MDA-MB-231 cells assessed as inhibition of lamellipodia formation at 50 uM after 24 hrs by rhodamine phalloidin/DAPI staining-based confocal microscopic analysis; assay type: cell-based
MDA-MB-231 [28] = assay: Effect on total AKT protein level in human MDA-MB-231 cells at 1 to 10 uM after 24 hrs by Western blot analysis; assay type: functional, cell-based
MDA-MB-231 [29] = assay: Inhibition of PI3K in human MDA-MB-231 cells assessed as inhibition of AKT phosphorylation at 1 to 10 uM after 24 hrs by Western blot analysis; assay type: cell-based

With `COc1ccc(/C=C/c2cc(O)cc(O)c2)cc1O` the Activity (MDA-MB-231 [1]) was “inactive”, the inhibition (MDA-MB-231 [2]) was 17% and the inhibition (MDA-MB-231 [3]) was “Active”. The inhibition (Homo sapiens [4]) was 70%, the inhibition (MDA-MB-231 [5]) was “Active” and the inhibition (MDA-MB-231 [6]) was 44%. For the same compound, the Activity (MDA-MB-231 [7]) was “inactive”, the inhibition (MDA-MB-231 [8]) was “Active” and the inhibition (Homo sapiens [9]) was 25%. For the same compound, the Activity (MDA-MB-231 [10]) was “Non-toxic”, the inhibition (MDA-MB-231 [11]) was 25% and the Activity (MDA-MB-231 [12]) was “inactive”. For the same compound, the inhibition (MDA-MB-231 [13]) was “Active”, the inhibition (MDA-MB-231 [14]) was 50% and the Activity (MDA-MB-231 [15]) was “Toxic”. For the same compound, the inhibition (MDA-MB-231 [16]) was “Active”, the inhibition (MDA-MB-231 [17]) was “Active” and the inhibition (MDA-MB-231 [18]) was “Active”. For the same compound, the inhibition (MDA-MB-231 [19]) was “Active”, the Activity (MDA-MB-231 [20]) was “inactive” and the inhibition (MDA-MB-231 [21]) was 26%. The inhibition (MDA-MB-231 [22]) was “Active”, the inhibition (Homo sapiens [23]) was 44% and the Activity (MDA-MB-231 [24]) was “inactive”. The inhibition (MDA-MB-231 [25]) was 68%, the Activity (MDA-MB-231 [26]) was “inactive” and the inhibition (MDA-MB-231 [27]) was “Active”.

In the case of `COC[C@H]1OC(=O)c2coc3c2[C@@]1(C)C1=C(C3=O)[C@@H]2CCC(=O)[C@@]2(C)C[C@H]1OC(C)=O`, the Activity (MDA-MB-231 [28]) is reported as “inactive” and the inhibition (MDA-MB-231 [29]) is reported as “Active”.
